Assay results: US8716260B2, “Use of S-adenosylmethionine, vitamin E, and vitamin C for the treatment of oxidative liver injury” (University of Manitoba, priority 2005, dated 2014)

Experiments:
Format in all cases: in vivo, rat
Male Sprague-Dawley rats [1] = experiment: Rapid Insulin Sensitivity Test (RIST); details: for RIST index: TAA rats (TAA 200 mg.kg-1 i.p. 24 h before), control RIST, treatments i.p. 1 h post TAA; for RIST index post atropine: TAA rats, second RIST after atropine 0.1 mg.kg-1 i.v. (HISS-independent component)
Description: Surgical Preparation. Male Sprague-Dawley rats weighing 260-300 g from the University of Manitoba colony were maintained in the animal house under controlled conditions (22±1° C., 12 h light/12 h dark cycle). They were fed a standard rat chow diet with free access to water. All rats underwent a fasting period of 8 h and a refeeding phase of 2 h immediately before the start of surgical preparation. As HISS is only released in the fed state, the fasting-refeeding protocol assured a high level of HISS release in response to insulin. The rats were anaesthetized with an intraperitoneal injection of sodium pentobarbital (65 mg kg-1; Somnotol, MTC Pharmaceuticals, Ont). Maintained anesthesia was achieved throughout the experiment by a continuous infusion of pentobarbital sodium (0.5 mg.ml-1 saline given at 50 μl.min-1) through a cannula in the jugular vein, supplemented with a 0.65 mg (0.01 ml) bolus injection when required. The rats were placed on a temperature-controlled surgical table (Harvard Apparatus, Kent, England) and rectal temperature was monitored and held at 37-37.5° C. Spontaneous respiration was allowed through a tracheal tube.
An arterial-venous shunt was established, as previous described (Lautt W W et al. Can J Physiol Pharmacol. 1998; 76(12): 1080-6.), for monitoring mean arterial blood pressure (MAP), blood glucose level and for drug delivery. Briefly, two catheters (polyethylene tubing PE60), one inserted into the right femoral artery and the other into the right femoral vein, were connected to the two openings of a three way vascular circuit consisting of a T tube connected with silicon tubing. The third opening of the circuit was connected to a pressure transducer for the recording of the shunt pressure which, when the silicon tubing toward the venous side of the circuit was closed by clamping, represented the systemic arterial blood pressure. Blood samples were taken from the arterial side of the shunt for the glucose measurement. Flowing blood within the shunt assures the real time measurement of the blood glucose concentration, which is essential for the euglycemic clamp test as mentioned below. An infusion line was inserted into the venous side of the loop for drug delivery. Another infusion line connected to the jugular vein was established for glucose infusion. Animals were heparinized (100 IU.kg-1) to prevent clotting in the vascular loop.
Rapid Insulin Sensitivity Test (RIST). The RIST was performed as previously described (Lautt W W et al. Can J Physiol Pharmacol. 1998; 76(12): 1080-6.). Briefly, following completion of surgery, animals were allowed a 30-min stabilization period. The baseline glucose levels were then determined by samples taken at 5-min intervals and continued until three successive stable determinations were made. The mean of these three data points is regarded as the baseline for the RIST. To perform the RIST, human insulin (50mU.kg-1 in 0.5 ml saline) was infused into the femoral vein at the rate of 0.1 ml.min-1 for 5-min. After 1-min of insulin infusion, the first test glucose sample was determined and a variable glucose infusion (10%) was initiated. Blood samples were taken every 2-min and the glucose infusion rate was adjusted accordingly to maintain euglycemia. The RIST index is the amount of glucose (mg.kg-1) infused, to maintain euglycemia, over the test period that terminated when no further glucose infusion was required (approximately 30 min). At the end of a RIST, the animal is at its pretest glycemic level.
(§1) Animal groups. Six groups of animals were established under the following treatments: (1): Normal control rats, treated with saline and corn oil injection at the dose of 2 and 1 ml.kg-1, respectively, n=12. (2): Normal rats, treated with Vitamin C, Vitamin E and SAMe, n=8. The dose for Vitamin C and Vitamin E were 100 and 200 mg.kg-1, respectively; for SAMe was 25 mg.kg-1. […]

Male Sprague-Dawley rats [2] = experiment: Hepatic enzymes analysis (serum ALT and AST); details: TAA rats; effect on TAA-induced increases
Description: as §1, with “mg.kg-1. (3): Thioacetaminde (TAA) rats, given with intraperitoneal injection of TAA at the dose of 200 mg.kg-1, n=9. (4): TAA rats treated with Vitamin C+Vitamin E, n=11. (5): TAA rats with SAMe treatment, n=7. (6): TAA rats treated with Vitamin C+Vitamin E+SAMe, n=8. All compounds were administered by intraperitoneal injection (i. p.).” for “mg.kg-1.”
Protocol. […] Following the establishment of glucose baseline, the first RIST index was determined and this was regarded as the control RIST. […] The percentage contribution of HISS-dependent component to total insulin sensitivity was calculated as: % HISS=(RIST index in control−RIST index after atropine)/RIST index in control. […]
Hepatic enzymes analysis. Serum samples from rats in groups 1 to 6 were analyzed for alanine aminotransferase (ALT) and aspartate aminotransferase (AST) activities spectrophotometrically utilizing an Abbott analyzer and Diagnostic Chemicals Limited assay reagents (Charlottetown, P.E.I, Canada).

Male Sprague-Dawley rats [3] = experiment: Liver histopathological examination; details: TAA rats; for Bridging Necrosis / Necrosis: score 0-3; for Inflammation: score 0-3 (normal-0, mild-1, moderate-2, severe-3), mean of 5 fields
Description: Six groups of animals were established under the following treatments: (1): Normal control rats, treated with saline and corn oil injection at the dose of 2 and 1 ml.kg-1, respectively, n=12. (2): Normal rats, treated with Vitamin C, Vitamin E and SAMe, n=8. The dose for Vitamin C and Vitamin E were 100 and 200 mg.kg-1, respectively; for SAMe was 25 mg.kg-1. (3): Thioacetaminde (TAA) rats, given with intraperitoneal injection of TAA at the dose of 200 mg.kg-1, n=9. (4): TAA rats treated with Vitamin C+Vitamin E, n=11. (5): TAA rats with SAMe treatment, n=7. (6): TAA rats treated with Vitamin C+Vitamin E+SAMe, n=8. All compounds were administered by intraperitoneal injection (i. p.). TAA was administered 24 h before the start of surgery, and all treatment with vitamins and SAMe were given 1 h post TAA administration.
The left liver lobe was excised and embedded in paraffin, sliced 7 μm in thickness, and stained with hematoxylin-eosin. The tissue slices were then analyzed with light microscopy. Histopathological analysis of the injured area was performed with a computerized video-imaging system (Image-Pro Plus. Media Cybernetics, Md., USA) by a pathologist (Y.F.) who was not aware of sample assignment to experimental group. The degree of injury, including inflammation, necrosis and bridging necrosis, was expressed as the mean of 5 different fields for each slide scaled as 0-3: normal-0, mild-1, moderate-2 and severe-3.

Row | Structure (SMILES) | inhibition at 0.1 mg/kg (Male Sprague-Dawley rats [1]; Rattus norvegicus, read-out: inhibition of insulin sensitivity) | RIST index after atropine (Male Sprague-Dawley rats [1]; normal rats, atropine 0.1 mg.kg^−1) | RIST index (Male Sprague-Dawley rats [1]) | RIST index post atropine (Male Sprague-Dawley rats [1]) | Serum ALT and AST activities (Male Sprague-Dawley rats [2]) | histological injury of liver (Male Sprague-Dawley rats [3]) | Bridging Necrosis (Male Sprague-Dawley rats [3]) | Necrosis (Male Sprague-Dawley rats [3]) | Inflammation (Male Sprague-Dawley rats [3])
1 | CN1[C@@H]2CC[C@H]1C[C@@H](OC(=O)C(CO)c1ccccc1)C2 (stereo partly shown) [Atropine, atropine] | 50 ± 2.1% | 82.7 ± 3.2 mg/kg | – | – | – | – | – | – | –
2 | C[S+](CC[C@H](N)C(=O)O)C[C@H]1O[C@@H](n2cnc3c(N)ncnc32)[C@H](O)[C@@H]1O (stereo partly shown) [SAMe, S-adenosylmethionine] | – | – | 88.0 ± 4.1 mg/kg | 72.1 ± 3.5 mg/kg | did not prevent | slight reduction in histological injury | 0.09 ± 0.09 | 1.79 ± 0.15 # | 0.93 ± 0.13
3 | CC(=N)S [TAA, thioacetamide] | – | – | 75.5 ± 2.8 mg/kg | 69.0 ± 2.1 mg/kg | significant increase | massive hepatocytic necrosis | 1.17 ± 0.36 | 2.33 ± 0.17 | 1.50 ± 0.22
